Test results as given in patent US8221975B2, “Method for detection of microorganism” (Morinaga Milk Industry Co., Ltd., priority 2007, dated 2012).

Test system: Enterobacter sakazakii ATCC 6538P
Assay: MMS real-time PCR (79 bp) of EMA-treated Enterobacter sakazakii, Ct value
Format: cell-based
Protocol: In the case where the real-time PCR is employed, changes in fluorescent intensities are generally noise levels and about zero if the number of amplification cycles is in the range of 1 to 10. Therefore, the intensities are regarded as sample blanks containing no amplification products. The standard deviation (SD) of the changes is calculated, and a value obtained by multiplying the SD value by 10 is defined as a threshold value. The number of PCR cycles in which a value larger than the threshold value is achieved for the first time referred to as “cycle threshold value (Ct value)”. Therefore, the larger the initial amount of a DNA template in a PCR reaction solution, the smaller the Ct value, while the smaller the amount of the template DNA, the larger the Ct value. Even if the amounts of the template DNA are the same, the higher the proportion of the template where a target region of PCR has been cleaved, the larger the Ct value in PCR reactions for the region.
A Gram-negative bacterium, Enterobacter sakazakii (Enterobacter sakazakii ATCC 6538P; hereinafter, abbreviated as “sakazakii” in some cases), was cultured in brain-heart infusion (BHI) broth at 37° C., and 5 ml of the culture medium in the logarithmic growth phase was centrifuged at 8,000×g for 15 minutes at 4° C., followed by removal of the supernatant. 5 ml of physiological saline was added to the bacterial cells, and the whole was vigorously stirred and diluted 10-fold. Thus, a live cell suspension was prepared. The number of the live cells in the live cell suspension was determined in a standard agar plate medium and found to be 8.38±0.25 log10 cfu/ml.
The live cell suspension (1 ml) was placed in a 1.5-ml microtube, and the microtube was immersed in boiling water for 2 minutes and immediately cooled with ice water, to thereby prepare a injured cell suspension. The cells in the suspension probably include small numbers of live cells and dead cells but include mainly injured cells. Therefore, the cells are simply referred to as “injured cells”. Note that the method of the present invention is originally intended to detect live cells, and microorganism cells distinguished from live cells may be injured cells or dead cells.
Ethidium monoazide (EMA) was added to the live cell suspension and injured cell suspension of sakazakii prepared above at a final concentration of 0, 10, 25, or 100 μg/ml, and the suspensions were allowed to stand under shading at 4° C. for 10 minutes. The suspensions were placed on ice and irradiated for 5 minutes with a 500-W visible light (FLOOD PRF: 100 V, 500 W, IWASAKI ELECTRIC CO., LTD., wavelength: 500 to 700 nm) at a distance of 20 cm from the suspensions. Then, the suspensions were centrifuged at 15,000×g for 10 minutes at 4° C., and the supernatants were removed. An equal volume of physiological saline was added thereto, and the suspensions were stirred and centrifuged while cooling at 15,000×g for 10 minutes at 4° C., followed by removal of the supernatants. An equal volume of brain-heart infusion (BHI) broth was added thereto, and the suspensions were incubated at 37° C. for 2 hours.
In the […] EMA treatment, EMA was not added again to the live cell and injured cell suspensions having an EMA concentration of 0, […] The suspensions were allowed to stand under shading at 4° C. for 10 minutes, placed on ice, and irradiated for 5 minutes with a 500-W visible light at a distance of 20 cm from the suspensions.
Ethidium monoazide (EMA) was added to the live cell and injured cell suspensions of sakazakii prepared in the section “1.” at a final concentration of 0, 10, 25 or 100 μg/ml, and the suspensions were allowed to stand under shading at 4° C. for 10 minutes, placed on ice, and irradiated for 5 minutes with a 500-W visible light (FLOOD PRF: 100V, 500 W, IWASAKI ELECTRIC CO., LTD., wavelength: 500 to 700 nm) at a distance of 20 cm from the suspensions. […]

[1] = single-step EMA 10 μg/ml, Injured cell
[2] = single-step EMA 25 μg/ml, Injured cell
[3] = single-step EMA 100 μg/ml, Injured cell

**Q.** How did the “Ct value (mean ± SD, N = 2)” value [1] turn out when CC[n+]1c(-c2ccccc2)c2cc(N=[N+]=[N-])ccc2c2ccc(N)cc21 [EMA, ethidium monoazide] was run?
**A.** The value was 27.6 ± 0.1.

**Q.** And the “number of times of positive reaction in two PCR assays (i/2)” value (“number of times of positive reaction” below) [1]?
**A.** The value was “(2/2)”.

**Q.** What about the “Ct value (mean ± SD, N = 2)” value (single-step EMA 10 μg/ml, Live cell) of the same compound?
**A.** The value was 20.8 ± 0.9.

**Q.** What about the “Ct value (mean ± SD, N = 2)” value [2] of the same compound?
**A.** Its value is 27.3 ± 1.0.

**Q.** What about the “number of times of positive reaction” value [2] of the same compound?
**A.** The value was “(2/2)”.

**Q.** And the “Ct value (mean ± SD, N = 2)” value (single-step EMA 25 μg/ml, Live cell)?
**A.** The value was 19.9 ± 1.3.

**Q.** And the “Ct value (mean ± SD, N = 2)” value [3]?
**A.** Its value is 25.2 ± 0.5.

**Q.** And the “number of times of positive reaction” value [3]?
**A.** Its value is “(2/2)”.

**Q.** What about the “Ct value (mean ± SD, N = 2)” value (single-step EMA 100 μg/ml, Live cell) of the same compound?
**A.** Its value is 22.2 ± 1.0.

**Q.** What about the “Ct value (mean ± SD, N = 2)” value (two-step EMA 10/10 μg/ml, Live cell) of the same compound?
**A.** Its value is 17.1 ± 1.8.

**Q.** What about the “Ct value (mean ± SD, N = 2)” value (two-step EMA 25/10 μg/ml, Live cell) of the same compound?
**A.** The value was 18.5 ± 2.5.

**Q.** What about the “Ct value (mean ± SD, N = 2)” value (two-step EMA 100/10 μg/ml, Injured cell) of the same compound?
**A.** Its value is 27.3, ND^d,e.

**Q.** And the “Ct value (mean ± SD, N = 2)” value (two-step EMA 100/10 μg/ml, Live cell)?
**A.** The value was 22.9 ± 1.0.
